Source: US11771738B2 (Zoetis Services LLC, priority 2018, dated 2023)
Read-outs that look alike come from different tables or passages of the source.

What was measured:
Type in all cases: cell-based
D. immitis L4 larvae = assay: Dirofilaria immitis, L4 Stage (DiL4) In Vitro Assay; conditions: for minimal effective concentration: Dirofilaria immitis, 72 h, read-out: DiL4 MED, Minimum Effective Dose, D. immitis L4 larvae motility, in vitro; for DiMf/DiL4: larval stage selectivity, ratio of DiMf MED to DiL4 MED
[1] = tested on: third stage larvae of Haemonchus contortus; assay: Haemonchus contortus, Larvae Stage 3 (HcL3) In Vitro Assay; conditions: Haemonchus contortus, 96 h
[2] = tested on: microfilariae of Dirofilaria immitis; assay: Dirofilaria immitis, Microfilaria (DiMf) In Vitro Assay; conditions: Dirofilaria immitis, 72 h, read-out: DiMf MED, Minimum Effective Dose, D. immitis microfilariae motility, in vitro
[3] = read-out: HcL3 MED (symbol after Ex#), approximately 96 hours incubation, multiple-resistant field isolate
[4] = read-out: HcL3 MED, Minimum Effective Dose, H. contortus third stage larvae, approximately 96 hours
[5] = read-out: HcL3 MED, approximately 96 hours incubation, multiple-resistant field isolate
[6] = read-out: HcL3 MED, Haemonchus contortus third stage larvae in vitro, class mark appended to the Ex # in Table 3

Compound | minimal effective concentration (D. immitis L4 larvae) [µM] | DiMf/DiL4 (D. immitis L4 larvae) | minimal effective concentration [1, 3] [µM] | minimal effective concentration [1, 4] [µM] | minimal effective concentration [1, 5] [µM] | minimal effective concentration [2] [µM] | minimal effective concentration [1, 6] [µM]
CCOC(c1ccc(C[C@H]2OC(=O)[C@H](CC(C)C)N(C)C(=O)[C@@H](C)OC(=O)[C@H](CC(C)C)N(C)C(=O)[C@@H](Cc3ccccc3)OC(=O)[C@H](CC(C)C)N(C)C(=O)[C@@H](C)OC(=O)[C@H](CC(C)C)N(C)C2=O)cc1)c1ccc(F)c(F)c1 (stereo partly drawn) [Example 2-38, (3S,6R,9S,12R,15S,18R,21S,24R)-6-benzyl-18-(4-((3,4-difluorophenyl)(ethoxy)methyl)benzyl)-3,9,15,21-tetraisobutyl-4,10,12,16,22,24-hexamethyl-1,7,13,19-tetraoxa-4,10,16,22-tetraazacyclotetracosan-2,5,8,11,14,17,20,23-octaone] | 0.0006 | 50 | < 1 | 0.5 | ≤ 1 | 0.03 | –
CC(C)C[C@H]1C(=O)O[C@H](Cc2ccc(Cc3ccnn3C3CC3)cc2)C(=O)N(C)[C@@H](CC(C)C)C(=O)O[C@H](C)C(=O)N(C)[C@@H](CC(C)C)C(=O)O[C@H](Cc2ccc(Cc3ccnn3C3CC3)cc2)C(=O)N(C)[C@@H](CC(C)C)C(=O)O[C@H](C)C(=O)N1C [Example 3-268, (3S,6R,9S,12R,15S,18R,21S,24R)-6,18-bis(4-((1-cyclopropyl-1H-pyrazol-5-yl)methyl)benzyl)-3,9,15,21-tetraisobutyl-4,10,12,16,22,24-hexamethyl-1,7,13,19-tetraoxa-4,10,16,22-tetraazacyclotetracosan-2,5,8,11,14,17,20,23-octaone] | 0.0005 | 4 | – | 1 | ≤ 1 | 0.002 | < 1
CC(C)C[C@H]1C(=O)O[C@H](Cc2ccc(Cc3ccco3)cc2)C(=O)N(C)[C@@H](CC(C)C)C(=O)O[C@H](C)C(=O)N(C)[C@@H](CC(C)C)C(=O)O[C@H](Cc2ccc(Cc3ccco3)cc2)C(=O)N(C)[C@@H](CC(C)C)C(=O)O[C@H](C)C(=O)N1C [Example 3-8, (3S,6R,9S,12R,15S,18R,21S,24R)-6,18-bis(4-(furan-2-ylmethyl)benzyl)-3,9,15,21-tetraisobutyl-4,10,12,16,22,24-hexamethyl-1,7,13,19-tetraoxa-4,10,16,22-tetraazacyclotetracosan-2,5,8,11,14,17,20,23-octaone] | 0.0003 | 33.3 | – | 1 | ≤ 1 | 0.01 | < 1
CC(C)C[C@H]1C(=O)O[C@H](Cc2ccc(Cc3ccoc3)cc2)C(=O)N(C)[C@@H](CC(C)C)C(=O)O[C@H](C)C(=O)N(C)[C@@H](CC(C)C)C(=O)O[C@H](Cc2ccc(Cc3ccoc3)cc2)C(=O)N(C)[C@@H](CC(C)C)C(=O)O[C@H](C)C(=O)N1C [Example 3-173, (3S,6R,9S,12R,15S,18R,21S,24R)-6,18-bis(4-(furan-3-ylmethyl)benzyl)-3,9,15,21-tetraisobutyl-4,10,12,16,22,24-hexamethyl-1,7,13,19-tetraoxa-4,10,16,22-tetraazacyclotetracosan-2,5,8,11,14,17,20,23-octaone] | < 0.0001 | >30 | – | 3.3 | – | 0.003 | 1 to 3.3
Cc1cc(F)ncc1Cc1ccc(C[C@H]2OC(=O)[C@H](CC(C)C)N(C)C(=O)[C@@H](C)OC(=O)[C@H](CC(C)C)N(C)C(=O)[C@@H](Cc3ccc(Cc4cnc(F)cc4C)cc3)OC(=O)[C@H](CC(C)C)N(C)C(=O)[C@@H](C)OC(=O)[C@H](CC(C)C)N(C)C2=O)cc1 [Example 3-322, (3S,6R,9S,12R,15S,18R,21S,24R)-6,18-bis(4-((6-fluoro-4-methylpyridin-3-yl)methyl)benzyl)-3,9,15,21-tetraisobutyl-4,10,12,16,22,24-hexamethyl-1,7,13,19-tetraoxa-4,10,16,22-tetraazacyclotetracosan-2,5,8,11,14,17,20,23-octaone] | 0.0003 | 33.3 | – | 10 | – | 0.01 | –
CC(C)C[C@H]1C(=O)O[C@H](Cc2ccc(Cc3ccc(F)cc3)cc2)C(=O)N(C)[C@@H](CC(C)C)C(=O)O[C@H](C)C(=O)N(C)[C@@H](CC(C)C)C(=O)O[C@H](Cc2ccccc2)C(=O)N(C)[C@@H](CC(C)C)C(=O)O[C@H](C)C(=O)N1C [Example 2-4, (3S,6R,9S,12R,15S,18R,21S,24R)-6-benzyl-18-(4-(4-fluorobenzyl)benzyl)-3,9,15,21-tetraisobutyl-4,10,12,16,22,24-hexamethyl-1,7,13,19-tetraoxa-4,10,16,22-tetraazacyclotetracosan-2,5,8,11,14,17,20,23-octaone] | 0.0007 | 71.4 | 1 to 3.3 | 3.3 | – | 0.05 | –
CC(C)C[C@H]1C(=O)O[C@H](Cc2ccc(Cc3cnsc3)cc2)C(=O)N(C)[C@@H](CC(C)C)C(=O)O[C@H](C)C(=O)N(C)[C@@H](CC(C)C)C(=O)O[C@H](Cc2ccc(Cc3cnsc3)cc2)C(=O)N(C)[C@@H](CC(C)C)C(=O)O[C@H](C)C(=O)N1C [Example 3-254, (3S,6R,9S,12R,15S,18R,21S,24R)-3,9,15,21-tetraisobutyl-6,18-bis(4-(isothiazol-4-ylmethyl)benzyl)-4,10,12,16,22,24-hexamethyl-1,7,13,19-tetraoxa-4,10,16,22-tetraazacyclotetracosan-2,5,8,11,14,17,20,23-octaone] | 0.001 | 3 | – | 10 | – | 0.003 | –
CC(C)C[C@H]1C(=O)O[C@H](Cc2ccc(Cc3ncco3)cc2)C(=O)N(C)[C@@H](CC(C)C)C(=O)O[C@H](C)C(=O)N(C)[C@@H](CC(C)C)C(=O)O[C@H](Cc2ccccc2)C(=O)N(C)[C@@H](CC(C)C)C(=O)O[C@H](C)C(=O)N1C [Example 4-30, (3S,6R,9S,12R,15S,18R,21S,24R)-6-benzyl-3,9,15,21-tetraisobutyl-4,10,12,16,22,24-hexamethyl-18-(4-(oxazol-2-ylmethyl)benzyl)-1,7,13,19-tetraoxa-4,10,16,22-tetraazacyclotetracosan-2,5,8,11,14,17,20,23-octaone] | 0.001 | 1 | < 1 | 1 | ≤ 1 | 0.001 | –
COc1cnc(C(C)(F)c2ccc(C[C@H]3OC(=O)[C@H](CC(C)C)N(C)C(=O)[C@@H](C)OC(=O)[C@H](CC(C)C)N(C)C(=O)[C@@H](Cc4ccc(C(C)(F)c5cnc(OC)cn5)cc4)OC(=O)[C@H](CC(C)C)N(C)C(=O)[C@@H](C)OC(=O)[C@H](CC(C)C)N(C)C3=O)cc2)cn1 (stereo partly drawn) [Example 3-252, (3S,6R,9S,12R,15S,18R,21S,24R)-6,18-bis(4-(1-fluoro-1-(5-methoxypyrazin-2-yl)ethyl)benzyl)-3,9,15,21-tetraisobutyl-4,10,12,16,22,24-hexamethyl-1,7,13,19-tetraoxa-4,10,16,22-tetraazacyclotetracosan-2,5,8,11,14,17,20,23-octaone] | 0.0007 | 28.6 | – | > 42 | – | 0.02 | –
Cc1ncncc1Cc1ccc(C[C@H]2OC(=O)[C@H](CC(C)C)N(C)C(=O)[C@@H](C)OC(=O)[C@H](CC(C)C)N(C)C(=O)[C@@H](Cc3ccc(Cc4cncnc4C)cc3)OC(=O)[C@H](CC(C)C)N(C)C(=O)[C@@H](C)OC(=O)[C@H](CC(C)C)N(C)C2=O)cc1 [Example 3-294, (3S,6R,9S,12R,15S,18R,21S,24R)-3,9,15,21-tetraisobutyl-4,6,10,16,18,22-hexamethyl-12,24-bis(4-((4-methylpyrimidin-5-yl)methyl)benzyl)-1,7,13,19-tetraoxa-4,10,16,22-tetraazacyclotetracosan-2,5,8,11,14,17,20,23-octaone] | 0.0001 | 1 | – | 1 | ≤ 1 | 0.0001 | < 1
COc1cccc(C(C)(F)c2ccc(C[C@H]3OC(=O)[C@H](CC(C)C)N(C)C(=O)[C@@H](C)OC(=O)[C@H](CC(C)C)N(C)C(=O)[C@@H](Cc4ccc(C(C)(F)c5cccc(OC)n5)cc4)OC(=O)[C@H](CC(C)C)N(C)C(=O)[C@@H](C)OC(=O)[C@H](CC(C)C)N(C)C3=O)cc2)n1 (stereo partly drawn) [Example 3-225, (3S,6R,9S,12R,15S,18R,21S,24R)-6,18-bis(4-(1-fluoro-1-(6-methoxypyridin-2-yl)ethyl)benzyl)-3,9,15,21-tetraisobutyl-4,10,12,16,22,24-hexamethyl-1,7,13,19-tetraoxa-4,10,16,22-tetraazacyclotetracosan-2,5,8,11,14,17,20,23-octaone] | 0.0007 | 429 | – | > 100 | – | 0.3 | –
